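Protocol summary: plate cells (96-well), add compound at 5 concentrations, incubate 48 h, interpolate endpoints linearly. GI50 = concentration required for 50% inhibition of growth. TGI marks complete inhibition of growth.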
Assays:
Test in all cases: NCI-60 cell line screen, 48 h
[1] = tested on: KM12 colon
[2] = tested on: MOLT-4 leukemia
[3] = tested on: MDA-MB-231 breast
[4] = tested on: MALME-3M melanoma
[5] = tested on: SF-539 CNS
[6] = tested on: SW-620 colon
[7] = tested on: SF-295 CNS
[8] = tested on: NCI/ADR-RES ovarian
[9] = tested on: OVCAR-3 ovarian
[10] = tested on: TK-10 renal
[11] = tested on: SNB-75 CNS
[12] = tested on: SN12C renal
[13] = tested on: SK-MEL-5 melanoma
[14] = tested on: UACC-257 melanoma
[15] = tested on: SK-OV-3 ovarian
[16] = tested on: NCI-H226 lung
[17] = tested on: NCI-H23 lung
[18] = tested on: RPMI-8226 leukemia
[19] = tested on: ACHN renal
[20] = tested on: UO-31 renal
[21] = tested on: SR leukemia
[22] = tested on: MDA-MB-435
[23] = tested on: SF-268 CNS
[24] = tested on: T-47D breast
[25] = tested on: A549 NSCLC
[26] = tested on: SK-MEL-28 melanoma
[27] = tested on: CCRF-CEM leukemia
[28] = tested on: NCI-H460 lung
[29] = tested on: LOX IMVI melanoma
[30] = tested on: OVCAR-8 ovarian
[31] = tested on: MCF7 breast
[32] = tested on: SK-MEL-2 melanoma
[33] = tested on: M14 melanoma
[34] = tested on: HCT-15 colon
[35] = tested on: UACC-62 melanoma
[36] = tested on: HOP-62 NSCLC
[37] = tested on: DU-145 prostate
[38] = tested on: HL-60(TB) leukemia
[39] = tested on: HCC-2998 colon
[40] = tested on: CAKI-1 renal
[41] = tested on: SNB-19 CNS
[42] = tested on: IGROV1 ovarian
[43] = tested on: U251 CNS
[44] = tested on: A498 renal
[45] = tested on: OVCAR-4 ovarian
[46] = tested on: 786-0 renal
[47] = tested on: RXF 393 renal
[48] = tested on: HS 578T breast
[49] = tested on: HOP-92 NSCLC
[50] = tested on: NCI-H522 lung
[51] = tested on: HCT-116 colon
[52] = tested on: K-562 leukemia
[53] = tested on: BT-549 breast
[54] = tested on: OVCAR-5 ovarian
[55] = tested on: COLO 205 colon
[56] = tested on: HT29 colon
[57] = tested on: PC-3 prostate
[58] = tested on: EKVX NSCLC

SMILES: COc1ccc(-c2cn[nH]c2-c2cc(OC)c(OC)c(OC)c2)cc1OCc1ccccc1
- GI50 [1]: 3.3 µM
- TGI [1]: 12 µM
- GI50 [2]: 3.1 µM
- TGI [2]: 11 µM
- GI50 [3]: 3.25 µM
- TGI [3]: 16.5 µM
- GI50 [4]: 4.28 µM
- TGI [4]: 26.2 µM
- GI50 [5]: 2.19 µM
- TGI [5]: 5.23 µM
- GI50 [6]: 4.37 µM
- TGI [6]: 30.2 µM
- GI50 [7]: 3.01 µM
- TGI [7]: 9.02 µM
- GI50 [8]: 2.52 µM
- TGI [8]: 7.43 µM
- GI50 [9]: 2.47 µM
- TGI [9]: 5.44 µM
- GI50 [10]: 4.53 µM
- TGI [10]: 49 µM
- GI50 [11]: 2.91 µM
- TGI [11]: 9.23 µM
- GI50 [12]: 4.41 µM
- TGI [12]: 19.4 µM
- GI50 [13]: 2.29 µM
- TGI [13]: 5.89 µM
- GI50 [14]: 6.38 µM
- TGI [14]: 24.3 µM
- GI50 [15]: 3.74 µM
- TGI [15]: 23.8 µM
- GI50 [16]: 3.57 µM
- TGI [16]: 20.5 µM
- GI50 [17]: 4.21 µM
- TGI [17]: 31.7 µM
- GI50 [18]: 2.22 µM
- TGI [18]: 9.28 µM
- GI50 [19]: 3.53 µM
- TGI [19]: 35.2 µM
- GI50 [20]: 3.21 µM
- TGI [20]: 15.2 µM
- GI50 [21]: 2.85 µM
- TGI [21]: 9.38 µM
- GI50 [22]: 1.95 µM
- TGI [22]: 3.91 µM
- GI50 [23]: 4.6 µM
- TGI [23]: 27 µM
- GI50 [24]: 2.83 µM
- TGI [24]: 19.1 µM
- GI50 [25]: 3.56 µM
- TGI [25]: 51.6 µM
- GI50 [26]: 4.86 µM
- TGI [26]: 18.3 µM
- GI50 [27]: 3.49 µM
- TGI [27]: 26.5 µM
- GI50 [28]: 3.35 µM
- TGI [28]: 12.2 µM
- GI50 [29]: 3.44 µM
- TGI [29]: 13.6 µM
- GI50 [30]: 3.72 µM
- TGI [30]: 30.3 µM
- GI50 [31]: 3.65 µM
- TGI [31]: 17.1 µM
- GI50 [32]: 4.27 µM
- TGI [32]: 16.7 µM
- GI50 [33]: 2.63 µM
- TGI [33]: 8.77 µM
- GI50 [34]: 3.07 µM
- TGI [34]: 13.2 µM
- GI50 [35]: 3.02 µM
- TGI [35]: 13.3 µM
- GI50 [36]: 3.13 µM
- TGI [36]: 14.1 µM
- GI50 [37]: 3.94 µM
- TGI [37]: 21.6 µM
- GI50 [38]: 2.36 µM
- TGI [38]: 5.44 µM
- GI50 [39]: 3.45 µM
- TGI [39]: 12.1 µM
- GI50 [40]: 3.58 µM
- TGI [40]: 47.1 µM
- GI50 [41]: 4.23 µM
- TGI [41]: 24.7 µM
- GI50 [42]: 3.52 µM
- TGI [42]: 18.7 µM
- GI50 [43]: 3.24 µM
- TGI [43]: 11.8 µM
- GI50 [44]: 2.08 µM
- TGI [44]: 5.51 µM
- GI50 [45]: 4.97 µM
- TGI [45]: 59.1 µM
- GI50 [46]: 2.96 µM
- TGI [46]: 16.2 µM
- GI50 [47]: 1.95 µM
- TGI [47]: 4.85 µM
- GI50 [48]: 2.23 µM
- TGI [48]: 8.86 µM
- GI50 [49]: 2.01 µM
- TGI [49]: 15.3 µM
- GI50 [50]: 2 µM
- TGI [50]: 9.31 µM
- GI50 [51]: 3.13 µM
- TGI [51]: 11.2 µM
- GI50 [52]: 3.18 µM
- TGI [52]: > 100 µM
- GI50 [53]: 5.33 µM
- TGI [53]: 25.8 µM
- GI50 [54]: 3.76 µM
- TGI [54]: 28 µM
- GI50 [55]: 4.58 µM
- TGI [55]: 18.1 µM
- GI50 [56]: 3.61 µM
- TGI [56]: 15.8 µM
- GI50 [57]: 3.24 µM
- TGI [57]: 19.1 µM
- GI50 [58]: 4.48 µM
- TGI [58]: 47.2 µM

From PubChem BioAssay (NCI)
